pIC50: −log10 of the molar value.

The target of one assay is T1, Endothelin-converting enzyme 1 (Homo sapiens, UniProt P42892).
T1 sequence (P42892 whole entry): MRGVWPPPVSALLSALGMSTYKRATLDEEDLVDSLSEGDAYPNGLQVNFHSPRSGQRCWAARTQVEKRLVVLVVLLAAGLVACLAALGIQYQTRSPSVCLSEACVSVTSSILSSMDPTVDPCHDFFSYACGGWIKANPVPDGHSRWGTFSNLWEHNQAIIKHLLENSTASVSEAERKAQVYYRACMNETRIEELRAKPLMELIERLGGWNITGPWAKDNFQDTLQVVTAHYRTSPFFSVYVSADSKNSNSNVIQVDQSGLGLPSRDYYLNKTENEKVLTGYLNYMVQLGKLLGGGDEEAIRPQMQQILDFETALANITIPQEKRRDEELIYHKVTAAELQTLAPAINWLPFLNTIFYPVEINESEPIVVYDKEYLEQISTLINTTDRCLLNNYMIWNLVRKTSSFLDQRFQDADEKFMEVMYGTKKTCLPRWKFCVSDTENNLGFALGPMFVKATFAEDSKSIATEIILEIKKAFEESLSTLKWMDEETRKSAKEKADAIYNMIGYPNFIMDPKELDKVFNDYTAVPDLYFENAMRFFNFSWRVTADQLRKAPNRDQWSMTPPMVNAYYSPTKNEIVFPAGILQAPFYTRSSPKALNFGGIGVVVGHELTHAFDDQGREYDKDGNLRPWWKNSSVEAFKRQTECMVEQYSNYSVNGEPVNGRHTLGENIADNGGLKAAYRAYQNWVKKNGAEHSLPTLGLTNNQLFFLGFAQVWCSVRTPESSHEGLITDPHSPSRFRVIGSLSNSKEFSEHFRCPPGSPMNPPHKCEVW
Nature of the assay: (§1) Tested for inhibitory concentration against human Endothelin-converting enzyme 1 at 10 uM.
Compound `CSc1nnc([C@@H]2C[C@@H](S)CN2S(C)(=O)=O)n1-c1ccccc1` had a negative logarithm of the IC50 (pIC50) of 4.81. Same read-out and setting: the value for `CSc1nnc([C@@H]2C[C@@H](S)CN2C(=O)Nc2ccc(F)cc2)n1-c1ccccc1` was 4.75; that for `CCCCOC(=O)N1C[C@H](S)C[C@H]1c1nnc(SC)n1-c1ccccc1` was 5.57; that for `CSc1nnc([C@@H]2C[C@@H](S)CN2S(=O)(=O)c2ccc(F)cc2)n1-c1ccccc1` was 5.05. On the same count and under the same terms, the figure for `CC(C)CSc1nnc([C@@H]2C[C@@H](S)CN2S(=O)(=O)c2ccc3ccccc3c2)n1-c1ccccc1` is 6.14; for `CCCSc1nnc([C@@H]2C[C@@H](S)CN2S(=O)(=O)c2ccc3ccccc3c2)n1-c1ccccc1` it is 6.55; for `CSc1nnc([C@@H]2C[C@@H](S)CN2S(=O)(=O)c2ccc(C)cc2)n1-c1ccccc1` it is 5.36.

`CCCc1ccc(S(=O)(=O)N2C[C@H](S)C[C@H]2c2nnc(SC)n2-c2ccccc2)cc1` had a negative logarithm of the IC50 (pIC50) of 5.92. Still for that read-out and setting: the value for `CSc1nnc([C@@H]2C[C@@H](S)CN2S(=O)(=O)c2ccc3ccccc3c2)n1-c1c(F)c(F)cc(F)c1F` was 6.60; that for `O=S(=O)(c1ccc2ccccc2c1)N1C[C@H](S)C[C@H]1c1nnc(SCC2CC2)n1-c1ccccc1` was 6.15; that for `CSc1nnc([C@@H]2C[C@@H](S)CN2S(=O)(=O)c2ccc3ccccc3c2)n1-c1ccc(C(F)(F)F)cc1` was 6.44. On the same count and under the same terms, the value for `CSc1nnc([C@@H]2C[C@@H](S)CN2S(=O)(=O)c2ccc3ccccc3c2)n1Cc1ccc(F)cc1` was 6.82. On to `CSc1nnc([C@@H]2C[C@@H](S)CN2S(=O)(=O)c2ccc3ccccc3c2)n1-c1ccc(F)c(Cl)c1`, for which the negative-log IC50 (pIC50) is 5.92. `CSc1nnc([C@@H]2C[C@@H](S)CN2S(=O)(=O)c2ccc3ccccc3c2)n1-c1ccccc1` had a pIC50 of 6.30. The same measure, in the same setting: the value for `CSc1nnc([C@@H]2C[C@@H](S)CN2S(=O)(=O)c2ccc(Cl)cc2)n1-c1ccccc1` was 5.92; that for `CSc1nnc([C@@H]2C[C@@H](S)CN2S(=O)(=O)c2ccc(C(F)(F)F)cc2)n1-c1ccccc1` was 5.89.

In a further assay the target is T2, Endothelin-converting enzyme 1 (Homo sapiens) (UniProt P42892).
T2 sequence (whole entry): T1 sequence (P42892 whole entry)
The description is as §1.
`CSc1nnc([C@@H]2C[C@@H](S)CN2S(=O)(=O)N(C)C)n1-c1ccccc1` had an inhibition of 28%.

Turning to `CSc1nnc([C@@H]2C[C@@H](S)CN2S(=O)(=O)c2ccc3ccccc3c2)n1C`, the inhibition was found to be 43%.

The record behind these values is ChEMBL document CHEMBL1135166, “Synthesis of triazole-Tethered pyrrolidine libraries: novel ECE inhibitors” (Bioorg Med Chem Lett, 2002).
